# Tested on: normal human dermal fibroblasts (NHDF)
# Assay: Gene expression in NHDF, full transcriptome analysis with Affymetrix U219 microarray
# Assay type: cell-based
# Conditions: NHDF
# Experimental: In the present study, the transcriptional effects (modulation of gene expression) of compounds 1, 2, 3 and 4 were evaluated on normal human dermal fibroblasts (NHDF) under basal conditions.
# More specifically, the comparative analysis of the different transcriptomic profiles was performed using an Affymetrix GeneAtlas platform and the human “full transcriptome” U219 chip, which includes 36,000 transcripts and variants.
# Fibroblasts were seeded in 24-well plates and cultured in culture medium for 24 hours. The medium was then replaced by assay medium and cells were incubated for further 24 hours. The medium was replaced by assay medium containing or not (control) the test compounds at different concentrations and the cells were preincubated for 24 hours. All experimental conditions were performed in triplicate. At the end of incubation, the culture supernatants were removed and the cells were washed in a phosphate buffered saline (PBS) solution and immediately frozen at −80° C.
# Before RNA extraction, the replicates were pooled. Total RNA was extracted from each sample using TriPure Isolation Reagent® according to the supplier's instructions. The amount and quality of total RNA were evaluated for all samples using capillary electrophoresis (Bioanalyzer 2100, Agilent technologies). From each RNA, a labeled and amplified anti-sens RNA (aRNA) was obtained using GeneChip 3′IVT PLUS Kit (Affymetrix). For each labeled and amplified aRNA sample the profiles were evaluated before and after fragmentation using capillary electrophoresis (Bioanalyzer 2100, Agilent technologies). Hybridization of fragmented aRNA onto Affymetrix® U219 chip (36,000 transcripts and variants) was performed in the GeneAtlas™ fluidics Affymetrix® hybridization station for 20 hours at 45° C. U219 chip was analyzed using the GeneAtlas™ Imaging station (Affymetrix®—resolution 2 μm) to generate fluorescence intensity data.
# Expression Console and Quality controls: data were normalized with the Expression Console (Affymetrix®) software using RMA algorithm. Then a quality control of the labeling and the hybridization was performed. Hybridization and labeling steps successfully passed the quality controls for these experiments.
# Data reduction, Excel file description: once normalized with Expression Console, data were transferred into a Microsoft Excel® file in order to go further into data reduction.
# Calculation and tools were added in order to rank and sort data, and finally to support data interpretation. Detection thresholds in terms of fold change were defined and applied on normalized data.
# Results are considered and presented or commented per gene (and not probe). A probe set is a collection of probes designed to interrogate a given sequence of a gene. For data interpretation, the most important relative expression value obtained with one probe is considered to be representative of the corresponding gene. The file contains the following data: • Relative expression (RE) for each sample, • Fold change calculation, • Gene information.
smiles,measurement,setting,value
N[C@@H](CCCCNCC(F)(F)[C@]1(O)O[C@H](CO)[C@H](O)[C@H](O)[C@H]1O)C(=O)O [Compound 3],effect of treatment of NHDF on lipid synthesis (transcriptional),,"up regulation of lipids synthesis, including fatty acids, cholesterol or ceramides"
same,"Fold change, ACOT1///ACOT2","10 mg/ml, 24 h, vs control",2.02
same,"Fold change, APOD","10 mg/ml, 24 h, vs control",0.44
same,"Fold change, DHCR7","10 mg/ml, 24 h, vs control",2.95
same,"Fold change, FADS2","10 mg/ml, 24 h, vs control",2.20
same,"Fold change, GBAP1","10 mg/ml, 24 h, vs control",2.45
same,"Fold change, HACD1","10 mg/ml, 24 h, vs control",2.63
same,"Fold change, HMGCS1","10 mg/ml, 24 h, vs control",2.18
same,"Fold change, LRP8","10 mg/ml, 24 h, vs control",2.98
same,"Fold change, MVD","10 mg/ml, 24 h, vs control",2.80
same,"Fold change, NCOR1","10 mg/ml, 24 h, vs control",0.44
same,"Fold change, NEU1","10 mg/ml, 24 h, vs control",3.17
same,"Fold change, NPC1","10 mg/ml, 24 h, vs control",2.45
same,"Fold change, PHLDB2","10 mg/ml, 24 h, vs control",2.14
same,"Fold change, PHYH","10 mg/ml, 24 h, vs control",2.37
same,"Fold change, PLA2G15","10 mg/ml, 24 h, vs control",2.01
same,"Fold change, PLA2G16","10 mg/ml, 24 h, vs control",2.30
same,"Fold change, PRKAB2","10 mg/ml, 24 h, vs control",0.35
same,"Fold change, PTGDS","10 mg/ml, 24 h, vs control",2.50
same,"Fold change, SOAT1","10 mg/ml, 24 h, vs control",2.08
same,"Fold change, SPHK1","10 mg/ml, 24 h, vs control",2.18
same,"Fold change, SREBF1","10 mg/ml, 24 h, vs control",2.16
same,"Fold change, TXNRD1","10 mg/ml, 24 h, vs control",2.22
same,"Fold change, VAC14","10 mg/ml, 24 h, vs control",2.10
same,"Fold change, SCD","10 mg/ml, 24 h, vs control, Affymetrix probe set 11715561_s_at",4.60
same,"Fold change, SCD","10 mg/ml, 24 h, vs control, Affymetrix probe set 11715562_x_at",4.82
same,"Fold change, SCD","10 mg/ml, 24 h, vs control, Affymetrix probe set 11715563_s_at",4.79
same,"Fold change, G6PD","10 mg/ml, 24 h, vs control, Affymetrix probe set 11716292_a_at",2.00
same,"Fold change, G6PD","10 mg/ml, 24 h, vs control, Affymetrix probe set 11716293_x_at",2.04
same,"Fold change, INSIG1","10 mg/ml, 24 h, vs control, Affymetrix probe set 11716338_a_at",2.36
same,"Fold change, INSIG1","10 mg/ml, 24 h, vs control, Affymetrix probe set 11716339_a_at",2.78
same,"Fold change, PPT1","10 mg/ml, 24 h, vs control, Affymetrix probe set 11716533_a_at",2.40
same,"Fold change, LSS","10 mg/ml, 24 h, vs control, Affymetrix probe set 11717620_a_at",2.41
same,"Fold change, EBP","10 mg/ml, 24 h, vs control, Affymetrix probe set 11717859_a_at",2.52
same,"Fold change, GBA///GBAP1","10 mg/ml, 24 h, vs control, Affymetrix probe set 11719908_a_at",2.30
same,"Fold change, GM2A","10 mg/ml, 24 h, vs control, Affymetrix probe set 11719921_s_at",2.39
same,"Fold change, GM2A","10 mg/ml, 24 h, vs control, Affymetrix probe set 11719923_at",2.09
same,"Fold change, HSD17B14","10 mg/ml, 24 h, vs control, Affymetrix probe set 11720588_a_at",2.17
same,"Fold change, SERINC2","10 mg/ml, 24 h, vs control, Affymetrix probe set 11721046_a_at",2.54
same,"Fold change, TPP1","10 mg/ml, 24 h, vs control, Affymetrix probe set 11725032_a_at",2.23
same,"Fold change, ME1","10 mg/ml, 24 h, vs control, Affymetrix probe set 11726265_at",2.41
same,"Fold change, LSS","10 mg/ml, 24 h, vs control, Affymetrix probe set 11731324_a_at",3.12
same,"Fold change, GBA///GBAP1","10 mg/ml, 24 h, vs control, Affymetrix probe set 11736100_a_at",2.69
same,"Fold change, CHKA","10 mg/ml, 24 h, vs control, Affymetrix probe set 11736285_a_at",2.53
same,"Fold change, CHKA","10 mg/ml, 24 h, vs control, Affymetrix probe set 11736286_a_at",2.73
same,"Fold change, ASAH1","10 mg/ml, 24 h, vs control, Affymetrix probe set 11740582_a_at",2.18
same,"Fold change, PPT1","10 mg/ml, 24 h, vs control, Affymetrix probe set 11742107_a_at",2.25
same,"Fold change, ASAH1","10 mg/ml, 24 h, vs control, Affymetrix probe set 11743547_a_at",2.16
same,"Fold change, PCYT2","10 mg/ml, 24 h, vs control, Affymetrix probe set 11744044_s_at",2.15
same,"Fold change, FADS1","10 mg/ml, 24 h, vs control, Affymetrix probe set 11745459_a_at",3.04
same,"Fold change, LPCAT3","10 mg/ml, 24 h, vs control, Affymetrix probe set 11746281_a_at",2.48
same,"Fold change, LDLR","10 mg/ml, 24 h, vs control, Affymetrix probe set 11746974_a_at",2.37
same,"Fold change, GM2A","10 mg/ml, 24 h, vs control, Affymetrix probe set 11747178_x_at",2.24
same,"Fold change, PCYT2","10 mg/ml, 24 h, vs control, Affymetrix probe set 11747322_s_at",2.72
same,"Fold change, LDLR","10 mg/ml, 24 h, vs control, Affymetrix probe set 11748045_x_at",2.10
same,"Fold change, SERINC2","10 mg/ml, 24 h, vs control, Affymetrix probe set 11748053_x_at",2.92
same,"Fold change, TM7SF2","10 mg/ml, 24 h, vs control, Affymetrix probe set 11748279_s_at",2.25
same,"Fold change, GBA///GBAP1","10 mg/ml, 24 h, vs control, Affymetrix probe set 11748292_a_at",2.58
same,"Fold change, TPP1","10 mg/ml, 24 h, vs control, Affymetrix probe set 11748341_a_at",2.60
same,"Fold change, TPP1","10 mg/ml, 24 h, vs control, Affymetrix probe set 11748342_x_at",2.34
same,"Fold change, EBP","10 mg/ml, 24 h, vs control, Affymetrix probe set 11749332_x_at",2.48
same,"Fold change, ABHD4","10 mg/ml, 24 h, vs control, Affymetrix probe set 11749343_a_at",2.28
same,"Fold change, ABHD4","10 mg/ml, 24 h, vs control, Affymetrix probe set 11749376_a_at",2.13
same,"Fold change, ME1","10 mg/ml, 24 h, vs control, Affymetrix probe set 11750913_a_at",2.67
same,"Fold change, GBA","10 mg/ml, 24 h, vs control, Affymetrix probe set 11750975_x_at",2.34
same,"Fold change, GBA///GBAP1","10 mg/ml, 24 h, vs control, Affymetrix probe set 11751085_a_at",2.84
same,"Fold change, GBA","10 mg/ml, 24 h, vs control, Affymetrix probe set 11751086_x_at",2.57
same,"Fold change, GBA///GBAP1","10 mg/ml, 24 h, vs control, Affymetrix probe set 11751098_a_at",2.57
same,"Fold change, DHCR24","10 mg/ml, 24 h, vs control, Affymetrix probe set 11751337_a_at",2.29
same,"Fold change, DHCR24","10 mg/ml, 24 h, vs control, Affymetrix probe set 11751338_x_at",2.44
same,"Fold change, G6PD","10 mg/ml, 24 h, vs control, Affymetrix probe set 11752486_a_at",3.18

# From patent publication US20220267380A1, “Glycopeptides Increasing Lipid Synthesis” (TFCHEM, priority 2019, published 2022)
